The test system of the test is PAECs. As to the kind of experiment: PAEC attachment and morphology after 24 hours on discs surface modified with peptides (FIGS. 8A-10G, FIJI analysis). Format: cell-based. The following applies: 24 hours after seeding, surface modification at 2 μmol/cm^2 and 0.2 μmol/cm^2 (Tests 1-3). As for the experimental part: For the experiments in FIGS. 7A-7S, 18 multi-wells were washed in 70% RA. The multi-wells were split into 6 groups of surface modification, which were P/G/A/B/F, PHSRNKRGD (SEQ ID NO: 9) (referred to as “PHK” in the figures), AG73, GFOGER (SEQ ID NO: 10), BM-Binder, and FN-Binder. Surface modification was conducted with the peptide solutions in Table 4. Peptides were prepared at 2 μmol/cm^2 concentrations for surface modification, but the actual concentration was adjusted for the thiol concentration. Following surface modification, wells were seeded with PAECs at a concentration of 625000 per cm^2. 24 hours after seeding, the wells were fix stained and imaged to quantify cell morphology. Model surface area was 10.1 cm^2.
FIGS. 8A-10G provide data on experiments to compare cell seeding and proliferation on surfaces with single peptide or combination peptide modification at different concentrations, 2 μmol/cm^2 and 0.2 μmol/cm^2. The solutions used for peptide modification had the actual peptide concentrations noted in Table 5.
FIGS. 8A-8G illustrate PAEC morphology after 24 hours on discs surface modified with various peptides at 2 μmol/cm^2 concentration according to Test 1. FIG. 8A are stained disk scans of PAECs cultured on 6 different surface modification peptides. FIGS. 8B-8G are graphs of FIJI analysis of circularity frequency distribution.
FIGS. 9A-9G illustrate PAEC morphology after 24 hours on discs surface modified with various peptides at 2 μmol/cm^2 concentration adjusted to the volume used in the PGABF′ condition according to Test 2. FIG. 9A are stained disk scans of PAECs cultured on 6 different surface modification peptides. FIGS. 9B-9G are graphs of FIJI analysis of circularity frequency distribution.
FIGS. 10A-10G illustrate PAEC morphology after 24 hours on discs surface modified with various peptides at 0.2 μmol/cm^2 concentration according to Test 3. FIG. 10A are stained disk scans of PAECs cultured on 6 different surface modification peptides. […] FIJI analysis is a method of quantifying stained disk scans. […]
On to GCREISAFLGIPFAEPPMGPRRFLPPEPKKP [B], for which the “Cell attachment and morphology” value was “little cell attachment and those that were attached were round with little to no elongation”.

For the sequence “GCREKKRKRLQVQLSIRT [A, laminin-derived peptide recognized by syndecans]”, the “Cell attachment and morphology” value was “some cells that were elongated but that did not have full stretching as seen in other test conditions, and an increase in rounder cells”.

Take GCREKKTLQPVYEYMVGV [F]: the “Cell attachment and morphology” value is “little cell attachment and those that were attached were round with little to no elongation”.

The record behind these values is patent US20240318143A1, “POST-PROCESSING OF BIOLOGICAL SCAFFOLDS” (Lung Biotechnology PBC, priority 2023, published 2024).
